Results from paper PMC6152234, “Specialized Metabolites of the Lichen Vulpicida pinastri Act as Photoprotective Agents” (Molecules : A Journal of Synthetic Chemistry and Natural …, 2017).

Assays:
[1] = In vitro screening method for sun protection indexes (SPF, PF-UVA, λc, ISP, SUI) from UV absorbance 290–400 nm; type: physicochemical; details: before irradiation
Procedure: Photoprotective effectiveness is evaluated through photoprotective indexes such as SPF, PF-UVA, and critical wavelength (λc) (an indicator of the filter capacity to protect in the UVA range), as well as Spectral Uniformity Index (SUI) and Ideal Spectral Profile (ISP), two indexes recently defined by Diffey to focus on protection across the entire ultraviolet spectrum. They calculate the goodness of fit of the spectral profile to the ideal flat profile. SPF and PF-UVA measure the filter efficacy against UVB or UVA. SPF measurement is currently determined in vivo through determination of the erythemal reaction on human volunteers. For economical and ethical reasons, many alternative in vitro methods have been developed to measure SPF and also PF-UVA, λc or SUI and ISP. Unfortunately, despite concerted efforts around the globe between different commissions, none of them guarantees a good correlation with in vivo measurements. Moreover, all these in vitro methods require an amount of active raw material generally ≥100 mg and prevent the evaluation of compounds in minute amounts. The photoprotective indexes have been then determined thanks to a new method (see SM) especially developed to cope with the low availability of the compounds. Twelve commercial organic UV-filters, the photoprotective indexes of which were published (Table S3 in SM), encompassing a 1–24 SPF range were used for the development. It can be noted that the SPF values of benzophenone-3 (oxybenzone), PEG-25 PABA, homosalate, polysilicone 15 and 4-Methylbenzylidene Camphor are under 6, the value commonly accepted as the lower limit for commercial sunscreen. However, the efficient value of commercialized emulsion can be explained by the formulation of several organic and mineral filters. The similarity of the results (r^2 = 0.98 for published SPF vs. herein SPF, see Figure S1 in SM) supported the new method validity. Routinely, ethylhexyl methoxycinnamate (OMC) was used as positive control. Based on the SPF, λc, PF-UVA, SUI and ISP values obtained with marketed organic filters and on their UV range protection (Table S3 in SM), a decision tree was built to categorize the filters (Figure 3). Considering the herein SPF values of the filters cited above (around 2), the first condition to select a candidate is SPF > 2. Restricted UVA or UVB filters can be discriminated through the λc value (>370 nm) and PF-UVA (>2) for UVA and SUI (>1.2) and ISP (<90) for UVB. A large spectral protection (UVA + UVB) could be evaluated by combining the four criteria.
A new in vitro screening method based on spectrophotometric data was used to evaluate sun protection indexes such as SPF, PF-UVA, the critical wavelength λc, ISP and SUI. Its development was first conducted in a cuvette using twelve commercial organic filters encompassing a large range of SPF values (1 < SPF < 25) and then transposed in a 96-wells plate. Following the International recommendations, maximal concentrations never overtook 10% whatever the commercial filters or the lichens extracts or compounds considered. This new method faces some product availability limitation, which is a common shortcoming for natural products or metabolites (see all development in SM).
The scheme of solution preparation to record the experimental values is depicted in Figure 9. The sample (S4) was prepared at 0.02 mg/mL from stock solutions of filter candidate (S2) and of emulsion (S1) (See emulsion preparation in SM) taking into account the maximal concentration. The experimental absorbances Aλ were recorded in the 290–400 nm range versus a blank solution (S3) in a cuvette with a double beam spectrophotometer or in a 96-wells plate filled with 180 µL of solution by well. […] The diagram is described for final volumes of 50 mL, 100 µL, 25 mL and 25 mL for S1, S2, S3 and S4 solutions, respectively. Smaller volumes can easily be prepared. Solutions S2 and S4 were prepared in duplicate. […]

[2] = Stability of photoprotection indexes after UVA or UVB irradiation; type: physicochemical
Procedure: One hundred eighty microliters of solution in 96-well plates were irradiated by UVA (2 J/cm^2) or UVB ([…]). The absorbances were then recorded and photoprotective indexes were calculated as described above. The stability was evaluated by comparison between indexes described previously (Section 3.5.1) and obtained before and after irradiation. Two independently prepared solutions were studied and OMC was used as a positive control.

[3] = DPPH assay (reducing activity); type: biochemical
Procedure: Reducing activity of compounds 1–3 and crude extract on the 1,1′-diphenyl-2-picrylhydrazyl free radical (DPPH) and scavenging activity on superoxide anion were measured as previously described. Briefly, the scavenging activity of the lichen compounds on DPPH was measured using the Matsukawa method with some modifications. A reaction mixture containing 100 µL of DPPH (0.5 mM) in methanol and 10 µL of the lichen compound solutions in DMSO to give final concentrations of 19, 56, 167 and 500 µg/mL per well, was distributed in each microplate well. To allow results comparison and due to the presence of extract, concentrations are expressed in µg/mL. The absorbances were recorded at 540 nm after 30 min.
(§1) For both assays, each concentration and all tests were done in triplicate and the results averaged. Ascorbic acid was used as a positive control. The percentage inhibition at steady state for each dilution was used to calculate the IC50 values. This gave the amount of antioxidant required (measured as the concentration of the stock solution added to the reaction mixture) to either scavenge 50% of O2^− or 50% of DPPH radicals: the lower the values, the higher the scavenging activity towards O2^−.

[4] = NBT assay (superoxide anion scavenging, non-enzymatic NADH/PMS); type: biochemical
Procedure: Measurements of superoxide anion scavenging activity in 96-well microplates was based on the non-enzymatic method previously described with some modifications. The reaction mixture in the sample wells consisted of NADH (78 µM), nitro-blue tetrazolium (NBT) (50 µM), phenazine methosulfate (PMS) (10 µM), and lichen compounds (10, 20, 40, 80 µg/mL). The reagents were dissolved in 16 mM tris-hydrochloride buffer, at pH = 8 except for all the lichen compounds/extract which were dissolved in DMSO. After 5 min of incubation at room temperature, the spectrophotometric measurement was performed at 560 nm against blanks (without PMS nor sample).
as §1

HaCaT cells = test: Cytotoxic and photocytotoxic activities before and after UVA irradiation; type: cell-based, human
Procedure: Briefly, 100 µL per well of a cell suspension of HaCaT cells (ATCC) at 120,000 cells/mL were maintained in a RPMI culture medium with 5% of calf serum at 37 °C under 5% CO2 for 24 h for formation of monolayers. At t = 24 h, two 96-well plates per test chemical were preincubated for 1 h with seven different concentrations of the tested compounds and extract (ranging from 1 µg/mL to 200 µg/mL). Chlorpromazine was used as the positive control. To allow results comparison and due to the presence of extract, concentrations are expressed in µg/mL.
For both assays, each concentration and all tests were done in triplicate and the results averaged. The percentage inhibition at steady state for each dilution was used to calculate the IC50 values.

[5] = NBT antioxidant assay of compounds in combination (isobologram, combination index); type: biochemical
Procedure: For each drug ratio (Tables S5 and S6 in SM), the antioxidant inhibition was evaluated as previously described (2.6.1).
The antagonistic, synergistic or additive effect of the combination depends on the combination index value (CI) (Equation (1)). […] (IC50)X is the value of the IC50 of compound X alone.
For both assays, each concentration and all tests were done in triplicate and the results averaged.

[6] = set-up: method as in earlier work; details: ref 37 (Rancan); cited from earlier work

usnic acid
ISP (Ideal Spectral Profile) [1]: 53% | PF-UVA [1]: 1.8 | critical wavelength (λc) [1]: 364 nm | SPF ([1]; new in vitro method): 3.9 | variation in the SPF values after UVA irradiation ([2]; UVA 2 J/cm^2): +17% | photostability ([2]; UVA and UVB): photostable in the UVA and UVB ranges | DPPH Assay IC50 ± SD [3]: >500.0 mg/L | NBT Assay IC50 ± SD [4]: 24.0 ± 9 mg/L | IC50 ± SD With Irradiation (HaCaT cells; HaCaT cells, with UVA irradiation): 47.0 ± 10.0 mg/L | IC50 ± SD Without Irradiation (HaCaT cells; HaCaT cells, without irradiation): 33.0 ± 2.0 mg/L | phototoxic potential (HaCaT cells; from PIF, human keratinocyte cell line, UVA): no phototoxic potential | Superoxide anion scavenging activity (% inhibition) ([5]; Table S6, usnic acid alone 6.0 µg/mL): 32.0% | Superoxide anion scavenging activity (% inhibition) ([5]; Table S6, usnic acid alone 12.0 µg/mL): 40.0% | Superoxide anion scavenging activity (% inhibition) ([5]; Table S6, usnic acid alone 18.0 µg/mL): 46.0% | Superoxide anion scavenging activity (% inhibition) ([5]; Table S6, usnic acid alone 24.0 µg/mL): 50.0% | Superoxide anion scavenging activity (% inhibition) ([5]; Table S7, usnic acid alone 6.0 µg/mL): 32.0% | Superoxide anion scavenging activity (% inhibition) ([5]; Table S7, usnic acid alone 12.0 µg/mL): 40.0% | Superoxide anion scavenging activity (% inhibition) ([5]; Table S7, usnic acid alone 18.0 µg/mL): 46.0% | Superoxide anion scavenging activity (% inhibition) ([5]; Table S7, usnic acid alone 24.0 µg/mL): 50.0% | in vivo SPF [6]: 4.1
